Source: US20230104936A1, “TRPML MODULATORS” (Casma Therapeutics, Inc., priority 2019, published 2023)

Tested on: TFEB
Test: TFEB nuclear translocation assay, HeLa wt cells
Type: cell-based
Settings: 2 hrs compound treatment, Table 1 does not say HeLa wt or TRPML1 KO
In short: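 Read-out is the ratio of TFEB immunofluorescence in the nucleus to that in a ring just outside it, measured by automated imaging. HeLa wt cells received compounds for 2 hrs at 37° C before fixation and staining; AC50 values come from this ratio.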

SMILES | AC50 [nM] | AC50 (Homo sapiens, HeLa, 2 h) [nM]
C[C@@H]1COC[C@@H](C)N1CC1CCN(c2c(F)cccc2NS(=O)(=O)c2ccc(S(=N)(=O)N(C)C)cc2)CC1 (stereo partly drawn) [Compound A-836, N-(2-(4-(((3S,5S)-3,5-dimethylmorpholino)methyl)piperidin-1-yl)-3-fluorophenyl)-4-(N,N-dimethylsulfamidimidoyl)benzenesulfonamide] | 2010 to 8000 | 
CS(=O)(=O)c1ccc(S(=O)(=O)Nc2ccccc2N2CCC3(CC2)CN(C(=O)OC2CCOC2)c2cc(F)ccc23)cc1 (centres unmarked) [Compound A-469, oxolan-3-yl 6-fluoro-1′-[2-(4-methanesulfonylbenzenesulfonamido)phenyl]-1,2-dihydrospiro[indole-3,4′-piperidine]-1-carboxylate] |  | ≤ 2000
CC1(C)Cc2cc(S(=O)(=O)Nc3ccccc3N3CCCC4(CCCOC4)C3)ccc2O1 (centres unmarked) [Compound A-632, 2,2-dimethyl-N-(2-{2-oxa-8-azaspiro[5.5]undecan-8-yl}phenyl)-2,3-dihydro-1-benzofuran-5-sulfonamide] |  | ≤ 2000
COCC1(C)CCN(c2ccccc2NS(=O)(=O)Cc2cccc(C(C)(C)C)c2)CC1 [Compound A-627, 1-(3-tert-butylphenyl)-N-{2-[4-(methoxymethyl)-4-methylpiperidin-1-yl]phenyl}methanesulfonamide] |  | 2010 to 8000
CN(C)S(=O)(=O)c1ccc(S(=O)(=O)Nc2ccccc2N2CCC(C)(COC(F)(F)F)CC2)cc1 [Compound A-784, N1,N1-dimethyl-N4-(2-{4-methyl-4-[(trifluoromethoxy)methyl]piperidin-1-yl}phenyl)benzene-1,4-disulfonamide] |  | ≤ 2000
CC(c1cc(Cl)cnc1N1CCC(CN2CCC(F)(F)CC2)CC1)S(=O)(=O)c1ccc2c(c1)CCC2 (single isomer, unassigned) [Compound A-993, 5-chloro-2-(4-((4,4-difluoropiperidin-1-yl)methyl)piperidin-1-yl)-3-(1-((2,3-dihydro-1H-inden-5-yl)sulfonyl)ethyl)pyridine] |  | ≤ 2000
CC(c1cccc(F)c1N1CCC(COC(C)(C)C)CC1)S(=O)(=O)c1ccc(S(=N)(=O)N(C)C)cc1 (single isomer, unassigned) [Compound A-961, 4-((1-(2-(4-(tert-butoxymethyl)piperidin-1-yl)-3-fluorophenyl)ethyl)sulfonyl)-N,N-dimethylbenzenesulfonimidamide] | ≥ 10000 | 
COCC1(C)CCN(c2ccccc2NS(=O)(=O)Cc2cc(C)ccc2F)CC1 [Compound A-648, 1-(2-fluoro-5-methylphenyl)-N-{2-[4-(methoxymethyl)-4-methylpiperidin-1-yl]phenyl}methanesulfonamide] |  | ≤ 2000
CN(C)S(=O)(=O)c1ccc(S(=O)(=O)Nc2ccccc2N2CCN(C(=O)C3(C)CC(F)(F)C3)CC2)cc1 [Compound A-478, N4-{2-[4-(3,3-difluoro-1-methylcyclobutanecarbonyl)piperazin-1-yl]phenyl}-N1,N1-dimethylbenzene-1,4-disulfonamide] |  | 2010 to 8000
COCC1(C)CCN(c2ccccc2NS(=O)(=O)c2ccc(C(C)(C)C)cc2)CC1 [Compound A-483, 4-tert-butyl-N-{2-[4-(methoxymethyl)-4-methylpiperidin-1-yl]phenyl}benzene-1-sulfonamide] |  | ≤ 2000
CN=S(=O)(c1ccc(S(=O)(=O)Nc2cccc(F)c2N2CCC(CN3C[C@@H](C)O[C@@H](C)C3)CC2)cc1)N(C)C (stereo partly drawn) [Compound A-956, 4-{[2-(4-{[(2R,6S)-2,6-dimethylmorpholin-4-yl]methyl}piperidin-1-yl)-3-fluorophenyl]sulfamoyl}-N,N,N-trimethylbenzene-1-sulfonoimidamide] |  | ≤ 2000
CN(C)S(=O)(=O)c1ccc(S(=O)(=O)Nc2cccc(F)c2N2CCC(C)(N)CC2)cc1 [Compound A-899, N4-[2-(4-amino-4-methylpiperidin-1-yl)-3-fluorophenyl]-N1,N1-dimethylbenzene-1,4-disulfonamide] |  | ≥ 10000
O=S(=O)(Nc1ccccc1N1CCC(c2ccc(Cl)cc2F)CC1)c1ccc(F)cc1F [Compound A-87, N-{2-[4-(4-chloro-2-fluorophenyl)piperidin-1-yl]phenyl}-2,4-difluorobenzene-1-sulfonamide] |  | ≥ 10000
CN1CC2(CCN(c3ccccc3NS(=O)(=O)c3ccc(S(=O)(=O)N(C)C)cc3)CC2)C2NCCCC21 (centres unmarked) [Compound A-269, N1,N1-dimethyl-N4-(2-{1′-methyl-octahydrospiro[piperidine-4,3′-pyrrolo[3,2-b]pyridin]-1-yl}phenyl)benzene-1,4-disulfonamide] |  | ≥ 10000
CC1(C)Cc2cc(S(=O)(=O)Nc3ccccc3N3CCCC34CCCOC4)ccc2O1 (centres unmarked) [Compound A-640, 2,2-dimethyl-N-(2-{7-oxa-1-azaspiro[4.5]decan-1-yl}phenyl)-2,3-dihydro-1-benzofuran-5-sulfonamide] |  | 2010 to 8000
CC(c1cccc(F)c1N1CCC(CN2C[C@@H](C)O[C@H](C)C2)CC1)S(=O)(=O)c1ccc(S(=O)(=O)N(C)C)cc1 (stereo partly drawn) [Compound A-859, 4-{1-[2-(4-{[(2R,6R)-2,6-dimethylmorpholin-4-yl]methyl}piperidin-1-yl)-3-fluorophenyl]ethanesulfonyl}-N,N-dimethylbenzene-1-sulfonamide] |  | ≤ 2000

SMILES | AC50 [nM] | AC50 (Homo sapiens, HeLa, 2 h) [nM]
CS(=O)(=O)c1ccc(S(=O)(=O)Nc2ccccc2N2CCC3(CC2)CN(CC2CCCO2)c2cc(F)ccc23)cc1 (centres unmarked) [Compound A-467, N-(2-{6-fluoro-1-[(oxolan-2-yl)methyl]-1,2-dihydrospiro[indole-3,4′-piperidin]-1′-yl}phenyl)-4-methanesulfonylbenzene-1-sulfonamide] |  | ≤ 2000
CN(C)S(=O)(=O)c1ccc(S(=O)(=O)Nc2ccccc2N2CCC3(CCOC3)CC2)cc1 [Compound A-422, N1,N1-dimethyl-N4-(2-{2-oxa-8-azaspiro[4.5]decan-8-yl}phenyl)benzene-1,4-disulfonamide] |  | ≤ 2000
CN(C)S(=O)(=O)c1ccc(S(=O)(=O)Nc2ccccc2N2CCN(C3CCCOC3)CC2)cc1 (centres unmarked) [Compound A-450, N1,N1-dimethyl-N4-{2-[4-(oxan-3-yl)piperazin-1-yl]phenyl}benzene-1,4-disulfonamide] |  | 8010 to 9990
CC(c1cccc(F)c1N1CCC(C)(C(F)F)CC1)S(=O)(=O)c1ccc(S(=O)(=O)N(C)C)cc1 (single isomer, unassigned) [Compound A-933, 4-((1-(2-(4-(difluoromethyl)-4-methylpiperidin-1-yl)-3-fluorophenyl)ethyl)sulfonyl)-N,N-dimethylbenzenesulfonamide] | ≤ 2000 | 
COc1ccc(S(=O)(=O)Nc2ccccc2N(C)c2ccc(F)cc2F)cc1 [Compound A-199, N-{2-[(2,4-difluorophenyl)(methyl)amino]phenyl}-4-methoxybenzene-1-sulfonamide] |  | ≥ 10000
CN(C)S(=O)(=O)c1ccc(S(=O)(=O)Nc2ccccc2N2CCCN(C3CC3)CC2)cc1 [Compound A-484, N4-[2-(4-cyclopropyl-1,4-diazepan-1-yl)phenyl]-N1,N1-dimethylbenzene-1,4-disulfonamide] |  | 2010 to 8000
C[C@@H]1CN(c2nn(S(=O)(=O)c3ccc(S(=O)(=O)N(C)C)cc3)c3ccccc23)C[C@H](C)C1F (stereo partly drawn) [Compound A-969, 4-({3-[(3R,5S)-4-fluoro-3,5-dimethylpiperidin-1-yl]-1H-indazol-1-yl}sulfonyl)-N,N-dimethylbenzene-1-sulfonamide] |  | ≤ 2000
CN(C)S(=O)(=O)c1ccc(S(=O)(=O)Nc2ccccc2N2CCC(COCC(F)F)CC2)cc1 [Compound A-730, N4-(2-{4-[(2,2-difluoroethoxy)methyl]piperidin-1-yl}phenyl)-N1,N1-dimethylbenzene-1,4-disulfonamide] |  | ≤ 2000
C[C@H](c1cccc(F)c1N1CCC(F)(F)CC1)S(=O)(=O)c1ccc(S(=N)(=O)N(C)C)cc1 (single isomer, unassigned) [Compound A-891] | ≥ 10000 | 
CN(CCO)S(=O)(=O)c1ccc(S(=O)(=O)Nc2ccccc2N2CCC(c3c(F)cccc3F)CC2)cc1 [Compound A-223, N4-{2-[4-(2,6-difluorophenyl)piperidin-1-yl]phenyl}-N1-(2-hydroxyethyl)-N1-methylbenzene-1,4-disulfonamide] |  | 2010 to 8000
CN(C)S(=O)(=O)c1ccc(S(=O)(=O)Nc2ccccc2N2CCC(COC(F)F)CC2)cc1 [Compound A-543, N4-(2-{4-[(difluoromethoxy)methyl]piperidin-1-yl}phenyl)-N1,N1-dimethylbenzene-1,4-disulfonamide] |  | ≤ 2000
CC1(C)CC2(CCN(c3ccccc3NS(=O)(=O)c3ccc4c(c3)CC(C)(C)O4)CC2)CO1 [Compound A-635, N-(2-{3,3-dimethyl-2-oxa-8-azaspiro[4.5]decan-8-yl}phenyl)-2,2-dimethyl-2,3-dihydro-1-benzofuran-5-sulfonamide] |  | 2010 to 8000
COCC1(C)CCN(c2ccccc2NS(=O)(=O)c2ccc(C3CC3)s2)CC1 [Compound A-708, 5-cyclopropyl-N-{2-[4-(methoxymethyl)-4-methylpiperidin-1-yl]phenyl}thiophene-2-sulfonamide] |  | ≤ 2000
COCC1(C)CCN(c2ccccc2NS(=O)(=O)c2ccc(S(=O)(=O)N(C)C)cc2)CC1 [Compound A-438, N4-{2-[4-(methoxymethyl)-4-methylpiperidin-1-yl]phenyl}-N1,N1-dimethylbenzene-1,4-disulfonamide] |  | ≤ 2000
CN(C)S(=O)(=O)c1ccc(S(=O)(=O)Nc2ccccc2N2CCC(c3ccc(C(=O)O)cc3)CC2)cc1 [Compound A-267, 4-(1-{2-[4-(dimethylsulfamoyl)benzenesulfonamido]phenyl}piperidin-4-yl)benzoic acid] |  | ≥ 10000
CC(c1cccc(F)c1N1CCCCC1)S(=O)(=O)c1ccc(S2(=O)=NCCC2)cc1 (single isomer, unassigned) [Compound A-992, 1-(4-((1-(3-fluoro-2-(piperidin-1-yl)phenyl)ethyl)sulfonyl)phenyl)-4,5-dihydro-3H-isothiazole 1-oxide] | ≥ 10000 | 
